Laboratory results: patent US10829473B2, “Modulators of the cystic fibrosis transmembrane conductance regulator protein and methods of use” (AbbVie Overseas S.Á.R.L., priority 2017, dated 2020)
Where two headings read alike, the source gives them in different places. Marks after values point to notes of the source that are not given here.

Molecular target: T1, F508delCFTR (Homo sapiens, UniProt P13569, DEL508-508)
T1 construct: expressed in transfected cells; host or cells: CFBE41o- human lung derived epithelial cells (CFBE41o-F508delCFTR-HRP), doxycycline-inducible
Assay: Cell Surface Expression-Horse Radish Peroxidase (CSE-HRP) Assay;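 as to EC50 (with co-corrector): co-corrector chromenyl benzoic acid corrector at 2 or 3 µM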
Assay type: cell-based
Details: for Maximum % activity (with co-corrector) / Emax: maximum at any tested concentration; for Emax: read-out: Maximum % activity (without co-corrector)
Experimental: A cellular assay for measuring the F508delCFTR cell surface expression after correction with test compounds either without or with a co-corrector (2 μM of 3-[(2R,4R)-4-({[1-(2,2-difluoro-1,3-benzodioxol-5-yl)cyclopropyl]carbonyl}amino)-7-methoxy-3,4-dihydro-2H-chromen-2-yl]benzoic acid), was developed in human lung derived epithelial cell line (CFBE4lo−) (Veit G et al, (2012) Mol Biol Cell. 23(21): 4188-4202). The development was achieved by expressing the F508delCFTR mutation along with a horseradish peroxidase (HRP) in the fourth exofacial loop, and then measuring the HRP activity using luminescence readout from these cells, CFBE410-F508delCFTR-HRP, that were incubated overnight with the test corrector compounds, either without or with the co-corrector. For this primary assay, the CFBE410-F508delCFTR-HRP cells were plated in 384-well plates (Greiner Bio-one; Cat 781080) at 4,000 cells/well along with 0.5 μg/mL doxycycline to induce the F508delCFTR-HRP expression and further incubated at 37° C., 5% CO2 for 68-72 hours. The test compounds were then added either without or with a co-corrector at the required concentrations and further incubated for 18-24 hours at 33° C. The highest concentration tested was 20 μM or 30 μM (GI-1 to GIII-36) with an 8-point concentration response curve using a 3-fold dilution in both the test compound without or with the co-corrector. Three replicate plates were run to determine one EC50. All plates contained negative controls (dimethyl sulfoxide, DMSO) and positive control (2 μM or 3 μM (GI-1 to GIII-36) of 3-[(2R,4R)-4-({[1-(2,2-difluoro-1,3-benzodioxol-5-yl)cyclopropyl]carbonyl}amino)-7-methoxy-3,4-dihydro-2H-chromen-2-yl]benzoic acid) as well as on-plate concentration response of the positive control. Post incubation, the plates were washed 5× times with Dulbecco's phosphate buffered saline (DPBS), followed by the addition of the HRP substrate, luminol (50 4), and measuring the HRP activity using luminescence readout on EnVision® Multilabel Plate Reader (Perkin Elmer; product number 2104-0010). The raw counts from the experiment were analyzed using Accelrys® Assay Explorer v3.3.
Z′ greater than 0.5 was used as passing quality control criteria for the plates.
The Z′ is defined as: 1−[3*SDPositve Control+3*SDNegative Control/Absolute(MeanPositive Control−MeanNegative Control)] wherein “SD” is standard deviation.
The % activity measured at each of the 8 test concentrations of the test compound added either without or with a co-corrector (2 μM or 3 μM (GI-1 to GIII-36) of 3-[(2R,4R)-4-({[1-(2,2-difluoro-1,3-benzodioxol-5-yl)cyclopropyl]carbonyl}amino)-7-methoxy-3,4-dihydro-2H-chromen-2-yl]benzoic acid) was normalized to the on-plate positive control using the following formulae: % activity (Test compound without co-corrector)=[(test compound without co-corrector response DMSO response)/(positive control response DMSO response)]*100 % activity (Test compound with co-corrector)=[(test compound with co-corrector response DMSO response)/(positive control response DMSO response)]*100
The maximum % activity achieved for the test compound either without or with a co-corrector at any tested concentration is presented in Table 6 along with the respective EC50's calculated using the following general sigmoidal curve with variable Hill slope equation (described as Model 42 in the Accelrys® Assay Explorer v3.3 software): y=(a−d)/(1+(x/c)b)+d
General sigmoidal curve with concentration, response, top, bottom, EC50 and Hill slope. This model describes a sigmoidal curve with an adjustable baseline, a. The equation can be used to fit curves where response is either increasing or decreasing with respect to the independent variable, “x”.
“x” is a concentration of drug under test.
“a” is the maximum response, and “d” is the minimum response
“c” is the inflection point (EGO for the curve. That is, “y” is halfway between the lower and upper asymptotes when x=c.
“b” is the slope-factor or Hill coefficient. […]

[1] = test compound alone, without co-corrector, read-out: EC50 (without co-corrector)
[2] = with co-corrector, read-out: EC50 (with co-corrector)
[3] = test compound with co-corrector
[4] = test compound with co-corrector, read-out: EC50 (with co-corrector)
[5] = test compound without co-corrector
[6] = test compound without co-corrector, read-out: EC50 (without co-corrector)

T1 sequence (P13569 with tags, fused parts or gaps DEL508-508): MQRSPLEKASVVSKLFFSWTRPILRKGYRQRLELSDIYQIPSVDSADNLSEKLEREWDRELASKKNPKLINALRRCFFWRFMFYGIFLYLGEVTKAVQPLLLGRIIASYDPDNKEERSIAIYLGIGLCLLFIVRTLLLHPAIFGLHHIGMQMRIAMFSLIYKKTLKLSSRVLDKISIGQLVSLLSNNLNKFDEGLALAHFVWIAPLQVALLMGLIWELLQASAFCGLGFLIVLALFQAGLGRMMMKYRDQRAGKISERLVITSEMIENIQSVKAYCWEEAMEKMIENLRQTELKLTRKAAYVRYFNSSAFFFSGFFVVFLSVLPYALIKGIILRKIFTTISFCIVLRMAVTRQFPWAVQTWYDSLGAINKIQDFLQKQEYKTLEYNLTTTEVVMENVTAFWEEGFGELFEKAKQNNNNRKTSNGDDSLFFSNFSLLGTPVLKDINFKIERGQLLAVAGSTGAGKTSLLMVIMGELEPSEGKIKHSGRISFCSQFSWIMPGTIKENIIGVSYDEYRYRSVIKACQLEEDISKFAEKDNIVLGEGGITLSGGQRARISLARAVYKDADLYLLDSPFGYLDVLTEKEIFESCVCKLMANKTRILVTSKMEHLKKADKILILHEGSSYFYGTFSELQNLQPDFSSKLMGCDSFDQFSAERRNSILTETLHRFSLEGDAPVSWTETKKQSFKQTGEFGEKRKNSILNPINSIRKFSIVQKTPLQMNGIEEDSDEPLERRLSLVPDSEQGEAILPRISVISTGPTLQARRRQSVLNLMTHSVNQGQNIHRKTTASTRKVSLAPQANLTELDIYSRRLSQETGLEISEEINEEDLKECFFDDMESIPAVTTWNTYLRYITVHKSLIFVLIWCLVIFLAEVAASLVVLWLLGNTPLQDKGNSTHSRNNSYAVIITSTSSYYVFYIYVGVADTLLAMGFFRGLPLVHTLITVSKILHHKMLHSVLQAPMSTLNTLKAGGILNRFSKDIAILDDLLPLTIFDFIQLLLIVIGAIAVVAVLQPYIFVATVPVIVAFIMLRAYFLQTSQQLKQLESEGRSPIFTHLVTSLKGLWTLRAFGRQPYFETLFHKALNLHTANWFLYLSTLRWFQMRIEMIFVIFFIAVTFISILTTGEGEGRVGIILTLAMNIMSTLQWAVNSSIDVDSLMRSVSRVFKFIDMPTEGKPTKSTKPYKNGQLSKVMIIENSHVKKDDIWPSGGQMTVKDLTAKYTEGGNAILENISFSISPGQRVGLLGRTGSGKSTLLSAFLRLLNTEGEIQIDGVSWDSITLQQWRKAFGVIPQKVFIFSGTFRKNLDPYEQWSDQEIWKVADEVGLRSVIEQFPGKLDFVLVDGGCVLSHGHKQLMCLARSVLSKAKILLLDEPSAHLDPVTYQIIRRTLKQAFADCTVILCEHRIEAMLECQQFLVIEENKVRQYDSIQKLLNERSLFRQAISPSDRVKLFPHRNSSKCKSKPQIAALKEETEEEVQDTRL

SMILES: COc1ccc(C(C)(C)C)cc1C1(C(=O)NS(=O)(=O)c2cccc3nc(C)ccc23)CC1 [Example I-70, 1-(5-tert-butyl-2-methoxyphenyl)-N-(2-methylquinoline-5-sulfonyl)cyclopropane-1-carboxamide]
- EC50 [1]: < 3 µM
- Maximum % activity (with co-corrector) (with co-corrector): +++ (≥350)
- EC50 [2]: < 3 µM
- Emax (without co-corrector): > 150%

SMILES: COc1ccc(C(C)(C)OC)cc1C1(C(=O)NS(=O)(=O)c2cccc3ncccc23)CC1 [Example I-52, 1-[2-methoxy-5-(2-methoxypropan-2-yl)phenyl]-N-(quinoline-5-sulfonyl)cyclopropane-1-carboxamide]
- EC50 [1]: < 3 µM
- Maximum % activity (with co-corrector) (with co-corrector): +++ (≥350)
- EC50 [2]: < 3 µM
- Emax (without co-corrector): > 150%

SMILES: COc1cccc(C)c1C1(C(=O)NS(=O)(=O)c2cccc3c2ccn3C)CC1 [Example III-102]
- EC50 [1]: 3 to 10 µM
- Maximum % activity (with co-corrector) (with co-corrector): +++ (≥350)
- EC50 [2]: 3 to 10 µM
- Emax (without co-corrector): > 150%

SMILES: Cc1ccc2c(S(=O)(=O)NC(=O)C3(c4cc(C5CCC5)ncc4OC(C)C)CC3)cccc2n1 [Example GI-26, 1-{2-cyclobutyl-5-[(propan-2-yl)oxy]pyridin-4-yl}-N-(2-methylquinoline-5-sulfonyl)cyclopropane-1-carboxamide]
- EC50 [1]: 3 to 10 µM
- Maximum % activity (with co-corrector) (with co-corrector): +++ (≥350)
- EC50 [2]: < 3 µM
- Emax (without co-corrector): > 150%

SMILES: O=C(NS(=O)(=O)c1cccc2ncccc12)C1(c2cc(OC(F)(F)F)ccc2Cl)CC1 [II-24]
- EC50 [1]: < 3 µM
- Maximum % activity (with co-corrector) (with co-corrector): +++ (≥350)
- EC50 [2]: < 3 µM
- Emax (without co-corrector): > 150%

SMILES: CCc1ncc(OC(C)C)cc1C1(C(=O)NS(=O)(=O)c2cccc3ncccc23)CC1 [GII-16, 1-{2-ethyl-5-[(propan-2-yl)oxy]pyridin-3-yl}-N-(quinoline-5-sulfonyl)cyclopropane-1-carboxamide]
- Maximum % activity (with co-corrector) [3]: ++ (≥150 and <350)
- EC50 [4]: 3 to 10 µM
- EC50 (without co-corrector) [5]: ++^a
- Emax [5]: 50 to 150%

SMILES: COc1cnc(OC(C)C)c(C2(C(=O)NS(=O)(=O)c3cccc4ncccc34)CC2)c1 [Example GI-74, 1-{5-methoxy-2-[(propan-2-yl)oxy]pyridin-3-yl}-N-(quinoline-5-sulfonyl)cyclopropane-1-carboxamide]
- Maximum % activity (with co-corrector) [3]: +++ (≥350)
- EC50 [4]: < 3 µM
- Emax [5]: > 150%
- EC50 [6]: 3 to 10 µM

SMILES: COc1ccc(Br)cc1C1(C(=O)NS(=O)(=O)c2cccc3ncccc23)CC1 [Example I-18, 1-(5-bromo-2-methoxyphenyl)-N-(quinoline-5-sulfonyl)cyclopropane-1-carboxamide]
- EC50 [1]: < 3 µM
- Maximum % activity (with co-corrector) (with co-corrector): +++ (≥350)
- EC50 [2]: < 3 µM
- Emax (without co-corrector): > 150%

SMILES: O=C(NS(=O)(=O)c1cccc2ncccc12)C1(c2ccc(C(F)(F)F)nc2Cl)CC1 [GIII-29]
- Maximum % activity (with co-corrector) [3]: + (<150)
- EC50 [4]: > 10 µM
- Emax [5]: < 50%
- EC50 [6]: > 10 µM

SMILES: COc1ccc(C2CC2)cc1C1(C(=O)NS(=O)(=O)c2cccc3ncccc23)CC1 [II-57]
- Maximum % activity (with co-corrector) (with co-corrector): +++ (≥350)
- Emax (without co-corrector): > 150%

SMILES: O=C(NS(=O)(=O)c1cccc2ncccc12)C1(c2cc(Cl)cnc2F)CC1 [GIII-34]
- Maximum % activity (with co-corrector) [3]: + (<150)
- EC50 [4]: > 10 µM
- Emax [5]: < 50%
- EC50 [6]: > 10 µM

SMILES: CN1CCN(c2ncc(C3CC3)cc2C2(C(=O)NS(=O)(=O)c3cccc4[nH]ccc34)CC2)CC1 [GIII-36]
- Maximum % activity (with co-corrector) [3]: + (<150)
- EC50 [4]: > 10 µM
- Emax [5]: < 50%
- EC50 [6]: > 10 µM

SMILES: CCc1ccc(OC(C)C)c(C2(C(=O)NS(=O)(=O)c3cccc4ncccc34)CC2)n1 [Example GI-55, 1-{6-ethyl-3-[(propan-2-yl)oxy]pyridin-2-yl}-N-(quinoline-5-sulfonyl)cyclopropane-1-carboxamide]
- Maximum % activity (with co-corrector) [3]: +++ (≥350)
- EC50 [4]: < 3 µM
- Emax [5]: > 150%
- EC50 [6]: 3 to 10 µM
